The values below come from ChEMBL document CHEMBL5728717, “Amino pyrimidine compound for inhibiting protein tyrosine kinase activity” (2021).

Bounds are passed on as bounds.

In this test the target is Epidermal growth factor receptor (Homo sapiens, UniProt P00533). The test is described as follows: Kinase Inhibition Assay: Reagents and Materials:WT EGFR (Carna, Cat. No. 08-115), EGFR [L858R] (Carna, Cat. No. 08-502), EGFR [L858R/T790M] (Carna, Cat. No. 08-510), ATP (Sigma, Cat. No. A7699-1G), DMSO (Sigma, Cat. No. D2650), 96-well plate (Corning, Cat. No. 3365), 384-well plate (Greiner, Cat. No. 784076), HTRF Kinase TK Kit (Cisbio, Cat. No. 62TK0PEJ), Erlotinib (Selleckchem, Cat. No. S7787) …. In general terms: In TR-FRET formats the signal depends on donor and acceptor labels being close together.
Epidermal growth factor receptor, sequence (P00533 25-1210 limits assumed, stated change not applied): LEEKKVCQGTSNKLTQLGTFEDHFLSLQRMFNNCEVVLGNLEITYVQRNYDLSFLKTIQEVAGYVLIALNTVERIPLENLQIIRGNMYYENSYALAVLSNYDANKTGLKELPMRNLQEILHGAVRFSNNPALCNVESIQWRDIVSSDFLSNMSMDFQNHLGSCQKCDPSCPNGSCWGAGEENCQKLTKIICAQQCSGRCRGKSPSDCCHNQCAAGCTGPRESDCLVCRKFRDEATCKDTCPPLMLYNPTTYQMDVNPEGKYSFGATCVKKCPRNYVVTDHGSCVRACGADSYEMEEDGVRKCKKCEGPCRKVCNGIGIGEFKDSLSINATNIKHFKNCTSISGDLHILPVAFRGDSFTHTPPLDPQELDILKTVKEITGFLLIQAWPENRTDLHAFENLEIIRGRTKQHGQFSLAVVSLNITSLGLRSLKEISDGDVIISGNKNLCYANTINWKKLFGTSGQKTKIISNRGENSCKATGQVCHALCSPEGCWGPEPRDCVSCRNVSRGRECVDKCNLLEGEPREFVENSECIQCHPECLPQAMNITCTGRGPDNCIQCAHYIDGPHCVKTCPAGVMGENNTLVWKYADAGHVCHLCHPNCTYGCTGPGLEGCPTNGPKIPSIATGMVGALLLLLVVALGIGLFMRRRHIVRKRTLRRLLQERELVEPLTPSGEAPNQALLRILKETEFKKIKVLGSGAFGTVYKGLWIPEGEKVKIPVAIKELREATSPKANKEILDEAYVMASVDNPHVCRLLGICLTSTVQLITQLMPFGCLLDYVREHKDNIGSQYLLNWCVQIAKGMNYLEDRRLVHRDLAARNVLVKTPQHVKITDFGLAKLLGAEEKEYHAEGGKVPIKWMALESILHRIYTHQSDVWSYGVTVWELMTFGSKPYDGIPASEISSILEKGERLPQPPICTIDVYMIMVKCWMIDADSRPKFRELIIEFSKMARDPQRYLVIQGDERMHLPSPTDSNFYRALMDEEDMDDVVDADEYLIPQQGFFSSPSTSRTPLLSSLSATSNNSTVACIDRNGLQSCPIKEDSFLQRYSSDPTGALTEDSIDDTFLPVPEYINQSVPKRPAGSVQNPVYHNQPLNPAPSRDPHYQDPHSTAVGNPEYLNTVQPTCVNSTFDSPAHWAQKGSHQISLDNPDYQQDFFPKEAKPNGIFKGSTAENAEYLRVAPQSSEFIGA

Description: Then, it was diluted in DMSO with a 3-fold series gradient dilution for 10 times. […] The corresponding substrate and ATP were added and reacted at room temperature for 20 minutes (in which a negative and a positive control were set: the negative control is blank and the positive control is erlotinib). […] The inhibitions of the enzyme activity by the compounds at different concentrations were then fitted using Graphpad 5.0 software according to the four-parameter equation, and the IC50 values were calculated.

Compound `C=CC(=O)Nc1cc(Nc2nccc(-c3cc(F)c4nc(C)n(C(C)C)c4c3)n2)c(OC)cc1N1CCC(OC)CC1` displayed an IC50 of more than 100 nM.

As a reminder, the IC50 is the concentration needed to halve the response being measured. A high value points to a need for much substance.
